According to ChEMBL document CHEMBL1201862, “PubChem BioAssay data set” (2004):
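Step 1: Grow cells in 96-well plates. Step 2: Expose to compound for 48 hours at 5 concentrations. Step 3: Interpolate endpoints linearly; if unreached, use highest concentration. The concentration for 50% growth inhibition is given as GI50.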 The source made the active and inactive calls. Cut-off read from the data, not from the text of the source: active = GI50 up to about 1.1 µM and inactive = higher.

Key:
Test in all cases: NCI anticancer screen, dose series, 48 h
SF-295 = system: SF-295
KM12 = system: KM12
SK-MEL-28 = system: SK-MEL-28
HOP-92 = system: HOP-92
HCT-116 = system: HCT-116
SK-OV-3 = system: SK-OV-3
MDA-N = system: MDA-N
OVCAR-4 = system: OVCAR-4
NCI-H522 = system: NCI-H522
A498 = system: A498
OVCAR-5 = system: OVCAR-5
T47D = system: T47D
SNB-75 = system: SNB-75
SK-MEL-5 = system: SK-MEL-5
NCI/ADR-RES = system: NCI/ADR-RES
MCF7 = system: MCF7
PC-3 = system: PC-3
HOP-62 = system: HOP-62
SF-268 = system: SF-268
SNB-19 = system: SNB-19
RXF 393 = system: RXF 393
BT-549 = system: BT-549
NCI-H23 = system: NCI-H23
UACC-257 = system: UACC-257
MDA-MB-435 = system: MDA-MB-435
NCI-H226 = system: NCI-H226
UO-31 = system: UO-31
ACHN = system: ACHN
EKVX = system: EKVX
HCC 2998 = system: HCC 2998
UACC-62 = system: UACC-62
OVCAR-3 = system: OVCAR-3
HT-29 = system: HT-29
MDA-MB-231 = system: MDA-MB-231
IGROV-1 = system: IGROV-1
Hs-578T = system: Hs-578T
M14 = system: M14
SF-539 = system: SF-539
DU-145 = system: DU-145
SW-620 = system: SW-620
OVCAR-8 = system: OVCAR-8
A549 = system: A549
Malme-3M = system: Malme-3M
MOLT-4 = system: MOLT-4
CAKI-1 = system: CAKI-1
SK-MEL-2 = system: SK-MEL-2
SN12C = system: SN12C
TK-10 = system: TK-10
RPMI-8226 = system: RPMI-8226
U-251 = system: U-251
LOX IMVI = system: LOX IMVI
HCT-15 = system: HCT-15
NCI-H460 = system: NCI-H460
786-0 = system: 786-0
COLO 205 = system: COLO 205
K562 = system: K562

In the case of Clc1ccc(OCc2nnc(CCCCCCCCc3nnc(COc4ccc(Cl)cc4Cl)n3Nc3ccccc3)n2Nc2ccccc2)c(Cl)c1, the GI50 (SF-295) is reported as 1.38 µM (inactive), the GI50 (KM12) is reported as 10.7 µM (inactive) and the GI50 (SK-MEL-28) is reported as 5.46 µM (inactive). The GI50 (HOP-92) was 17.4 µM (inactive), the GI50 (HCT-116) was 11.4 µM (inactive) and the GI50 (SK-OV-3) was 11.5 µM (inactive). For the same molecule, the GI50 (MDA-N) was 9.93 µM (inactive), the GI50 (OVCAR-4) was 8.51 µM (inactive) and the GI50 (NCI-H522) was 8.75 µM (inactive). For the same molecule, the GI50 (A498) was 21.4 µM (inactive), the GI50 (OVCAR-5) was 9.23 µM (inactive) and the GI50 (T47D) was 6.53 µM (inactive). The GI50 (SNB-75) was 23 µM (inactive), the GI50 (SK-MEL-5) was 2.23 µM (inactive) and the GI50 (NCI/ADR-RES) was 11.9 µM (inactive). The GI50 (MCF7) was 7.06 µM (inactive), the GI50 (PC-3) was 3.07 µM (inactive) and the GI50 (HOP-62) was 3.02 µM (inactive). The GI50 (SF-268) was 14.2 µM (inactive), the GI50 (SNB-19) was 17.7 µM (inactive) and the GI50 (RXF 393) was 16.3 µM (inactive). For the same molecule, the GI50 (BT-549) was 17.9 µM (inactive), the GI50 (NCI-H23) was 15.1 µM (inactive) and the GI50 (UACC-257) was 10.8 µM (inactive). The GI50 (MDA-MB-435) was 5.97 µM (inactive), the GI50 (NCI-H226) was 9.51 µM (inactive) and the GI50 (UO-31) was 11.8 µM (inactive). The GI50 (ACHN) was 2.44 µM (inactive), the GI50 (EKVX) was 19 µM (inactive) and the GI50 (HCC 2998) was 7.21 µM (inactive). For the same molecule, the GI50 (UACC-62) was 1.47 µM (inactive), the GI50 (OVCAR-3) was 12 µM (inactive) and the GI50 (HT-29) was 13.8 µM (inactive). For the same molecule, the GI50 (MDA-MB-231) was 8.41 µM (inactive), the GI50 (IGROV-1) was 13 µM (inactive) and the GI50 (Hs-578T) was 15.8 µM (inactive). For the same molecule, the GI50 (M14) was 11.3 µM (inactive), the GI50 (SF-539) was 11.4 µM (inactive) and the GI50 (DU-145) was 18.6 µM (inactive). The GI50 (SW-620) was 12.7 µM (inactive), the GI50 (OVCAR-8) was 17.4 µM (inactive) and the GI50 (A549) was 8.77 µM (inactive). For the same molecule, the GI50 (Malme-3M) was 19.5 µM (inactive), the GI50 (MOLT-4) was 22.7 µM (inactive) and the GI50 (CAKI-1) was 8.73 µM (inactive). The GI50 (SK-MEL-2) was 8.04 µM (inactive), the GI50 (SN12C) was 18.4 µM (inactive) and the GI50 (TK-10) was 16.8 µM (inactive). For the same molecule, the GI50 (RPMI-8226) was 2.34 µM (inactive), the GI50 (U-251) was 13.1 µM (inactive) and the GI50 (LOX IMVI) was 19 µM (inactive). The GI50 (HCT-15) was 10.9 µM, the GI50 (NCI-H460) was 4.15 µM (inactive) and the GI50 (786-0) was 15.2 µM (inactive). For the same molecule, the GI50 (COLO 205) was 1.5 µM (inactive).
C=C[C@@]1(C)CC[C@@H]2[C@@]3(C1)O[C@H]3CC1[C@](C)(C(=O)OC)CCC[C@@]12C (some centres not stated) was tested, and the GI50 (SF-295) was 15 µM (inactive), the GI50 (KM12) was 35.6 µM (inactive) and the GI50 (SK-MEL-28) was 21.1 µM (inactive). The GI50 (HOP-92) was 16.7 µM (inactive), the GI50 (HCT-116) was 13.7 µM (inactive) and the GI50 (SK-OV-3) was 27.4 µM (inactive). The GI50 (MDA-N) was 22.1 µM (inactive), the GI50 (OVCAR-4) was 38.5 µM (inactive) and the GI50 (NCI-H522) was 16.9 µM (inactive). The GI50 (A498) was 32.5 µM (inactive), the GI50 (OVCAR-5) was 16.9 µM (inactive) and the GI50 (T47D) was 20.7 µM (inactive). For the same molecule, the GI50 (SNB-75) was 37.8 µM (inactive), the GI50 (SK-MEL-5) was 17.8 µM (inactive) and the GI50 (NCI/ADR-RES) was 20 µM (inactive). The GI50 (MCF7) was 15.6 µM (inactive), the GI50 (PC-3) was 30.4 µM (inactive) and the GI50 (HOP-62) was 20 µM (inactive). For the same molecule, the GI50 (SF-268) was 20.2 µM (inactive), the GI50 (SNB-19) was 16.3 µM (inactive) and the GI50 (RXF 393) was 16.1 µM (inactive). The GI50 (BT-549) was 25.5 µM (inactive), the GI50 (NCI-H23) was 24.4 µM (inactive) and the GI50 (UACC-257) was 19.3 µM (inactive). For the same molecule, the GI50 (MDA-MB-435) was 34 µM (inactive), the GI50 (UO-31) was 17.9 µM (inactive) and the GI50 (ACHN) was 16.1 µM (inactive). For the same molecule, the GI50 (EKVX) was 20.7 µM (inactive), the GI50 (HCC 2998) was 17.3 µM (inactive) and the GI50 (UACC-62) was 27 µM (inactive). The GI50 (OVCAR-3) was 17 µM (inactive), the GI50 (HT-29) was 14.1 µM (inactive) and the GI50 (MDA-MB-231) was 23 µM (inactive). For the same molecule, the GI50 (IGROV-1) was 25.6 µM (inactive), the GI50 (Hs-578T) was 20 µM (inactive) and the GI50 (M14) was 19.6 µM (inactive). For the same molecule, the GI50 (DU-145) was 30.4 µM (inactive), the GI50 (SW-620) was 23.7 µM (inactive) and the GI50 (OVCAR-8) was 21.3 µM (inactive). The GI50 (A549) was 23.1 µM (inactive), the GI50 (Malme-3M) was 17.7 µM (inactive) and the GI50 (MOLT-4) was 20 µM (inactive). For the same molecule, the GI50 (CAKI-1) was 33.5 µM (inactive), the GI50 (SK-MEL-2) was 18.9 µM (inactive) and the GI50 (TK-10) was 19.1 µM (inactive). For the same molecule, the GI50 (RPMI-8226) was 27 µM (inactive), the GI50 (U-251) was 21.1 µM (inactive) and the GI50 (K562) was 32.8 µM (inactive). The GI50 (HCT-15) was 19.5 µM, the GI50 (NCI-H460) was 16.4 µM (inactive) and the GI50 (786-0) was 20.3 µM (inactive). For the same molecule, the GI50 (COLO 205) was 16.6 µM (inactive).
